In US10385057B2, “Pyrazole compounds and methods of making and using same” (Lundbeck La Jolla Research Center, Inc., priority 2015, dated 2019) one finds IC50 and inhibition data, which are given here for 20 compounds.

A value given as a limit tells only on which side of the number the result lay.

One experiment concerns the target T1, MAGL (Mus musculus, UniProt O35678).
T1 construct: mouse brain membrane fraction or cell lysates for mouse assays; from tissue
T1 sequence (O35678 1-303): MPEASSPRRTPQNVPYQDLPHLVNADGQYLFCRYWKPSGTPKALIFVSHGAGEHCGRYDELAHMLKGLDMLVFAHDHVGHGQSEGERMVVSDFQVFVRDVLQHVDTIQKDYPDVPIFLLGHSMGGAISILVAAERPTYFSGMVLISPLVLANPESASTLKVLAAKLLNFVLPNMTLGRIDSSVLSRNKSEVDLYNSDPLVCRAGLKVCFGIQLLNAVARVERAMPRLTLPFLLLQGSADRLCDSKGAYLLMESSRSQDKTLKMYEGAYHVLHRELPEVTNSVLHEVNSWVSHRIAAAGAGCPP
As to the kind of experiment: In vitro competitive activity-based protein profiling, mouse MAGL. It is filed as biochemical. The note with it: for inhibition at 1 µM: read-out: MAGL % inh. 1 μM (mouse). The method, boiled down:
(§1)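 Activity measured as fluorescent gel-band intensity of MAGL and FAAH after SDS-PAGE. Before labelling with FP-Rh or HT-01 (30 min, 37 °C), proteomes at 1.0 mg/mL (mouse brain membrane or lysates; human prefrontal cortex or cell membranes) were exposed to varying inhibitor concentrations for 30 min at 37 °C.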

The next experiment concerns the target T2, FAAH (Mus musculus, UniProt O08914).
T2 construct: mouse brain membrane fraction or cell lysates for mouse assays; from tissue
T2 sequence (O08914 1-579): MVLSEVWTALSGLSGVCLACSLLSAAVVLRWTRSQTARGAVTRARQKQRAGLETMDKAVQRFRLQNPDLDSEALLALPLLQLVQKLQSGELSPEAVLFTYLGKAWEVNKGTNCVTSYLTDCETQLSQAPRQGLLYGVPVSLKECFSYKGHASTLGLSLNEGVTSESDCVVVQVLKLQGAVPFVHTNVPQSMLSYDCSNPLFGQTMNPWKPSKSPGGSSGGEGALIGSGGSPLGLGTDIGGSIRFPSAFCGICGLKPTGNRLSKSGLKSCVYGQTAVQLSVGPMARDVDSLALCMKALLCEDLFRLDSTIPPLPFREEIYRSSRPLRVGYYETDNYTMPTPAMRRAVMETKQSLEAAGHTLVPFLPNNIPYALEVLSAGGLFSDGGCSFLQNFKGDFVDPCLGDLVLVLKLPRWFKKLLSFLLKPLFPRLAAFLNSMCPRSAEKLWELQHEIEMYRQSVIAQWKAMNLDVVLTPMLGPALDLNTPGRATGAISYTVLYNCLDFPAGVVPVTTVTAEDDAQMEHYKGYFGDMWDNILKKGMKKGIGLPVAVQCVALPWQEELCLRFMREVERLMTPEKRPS
As to the kind of experiment: In vitro competitive activity-based protein profiling, mouse FAAH. The note with it: for inhibition at 1 µM: read-out: FAAH % inh. 1 μM (mouse). It is filed as biochemical. The method, boiled down: as §1

Broadly, the IC50 is the concentration that gives 50% inhibition. Low values mean inhibition by little substance, high ones a need for much substance. With `O=C(N1CCC2(CCN(Cc3ccc(C(F)(F)F)cc3)C2)C1)n1cc(Cl)cn1` (stereo not drawn) [Example 128, (4-chloro-1H-pyrazol-1-yl)(7-(4-(trifluoromethyl)benzyl)-2,7-diazaspiro[4.4]nonan-2-yl)methanone], on MAGL, the half-inhibitory concentration (IC50) was in the range of 100 to 1000 nM and the inhibition at 1 µM was at least 75%. Also, on FAAH, the half-maximal inhibitory concentration (IC50) was in the range of 100 to 1000 nM and the inhibition at 1 µM is at least 75%.
With `CN(Cc1cccc(Oc2cccnc2)c1)[C@@H]1C[C@@H]2CN(C(=O)n3cc(Cl)cn3)C[C@@H]2C1` [Example 165, (4-chloro-1H-pyrazol-1-yl)(cis-5-(methyl(3-(pyridin-3-yloxy)benzyl)amino)hexahydrocyclopenta[c]pyrrol-2(1H)-yl)methanone], at MAGL, the 50% inhibitory concentration (IC50) lay in the range of 100 to 1000 nM and the inhibition at 1 µM was at least 75%. Further, on FAAH, the 50% inhibitory concentration (IC50) was at most 100 nM and the inhibition at 1 µM was at least 75%.
Regarding `CN(Cc1ccc(C(F)(F)F)cc1)[C@H]1C[C@@H]2CN(C(=O)n3cc(C(=O)N4CCN(C5CC5)CC4)cn3)C[C@@H]2C1` [Example 186, (4-cyclopropylpiperazin-1-yl)(1-(trans-5-(methyl(4-(trifluoromethyl)benzyl)amino)octahydrocyclopenta[c]pyrrole-2-carbonyl)-1H-pyrazol-4-yl)methanone], the inhibition at 1 µM on MAGL and at FAAH was at least 75% each time.
Take `O=C(N1C[C@H]2C[C@H](NCc3cccc(Cl)c3)C[C@H]2C1)n1cc(Cl)cn1` [Example 75, (4-chloro-1H-pyrazol-1-yl)(trans-5-((3-chlorobenzyl)amino)hexahydrocyclopenta[c]pyrrol-2(1H)-yl)methanone]: the IC50 at MAGL and at FAAH was at most 100 nM each time. The inhibition at 1 µM on MAGL and at FAAH was at least 75% in each case.
Take `CN(Cc1ccc(N2CCOCC2)cc1)[C@H]1C[C@@H]2CN(C(=O)n3cc(Cl)cn3)C[C@@H]2C1` [Example 79, (4-chloro-1H-pyrazol-1-yl)(trans-5-(methyl(4-morpholinobenzyl)amino)hexahydrocyclopenta[c]pyrrol-2(1H)-yl)methanone]: the figures for the inhibition at 1 µM on MAGL and on FAAH were 50 to 75% and at least 75%, respectively.
For `O=C(c1cnn(C(=O)N2CC3CN(Cc4cc(Cl)ccc4Cl)CC3C2)c1)N1CCCC1` (stereo not drawn) [Example 22, (5-(2,5-dichlorobenzyl)hexahydropyrrolo[3,4-c]pyrrol-2(1H)-yl)(4-(pyrrolidine-1-carbonyl)-1H-pyrazol-1-yl)methanone] the same measures were at least 75% and at least 75%.
Turning to `O=C(c1cnn(C(=O)N2CC3CN(Cc4ccc(Oc5ccc(Cl)cc5)cc4)CC3C2)c1)N1CCOCC1` (stereo not drawn) [Example 200, (5-(4-(4-chlorophenoxy)benzyl)hexahydropyrrolo[3,4-c]pyrrol-2(1H)-yl)(4-(morpholine-4-carbonyl)-1H-pyrazol-1-yl)methanone], the inhibition at 1 µM on MAGL is 0 to 25%; at FAAH, at least 75%. Besides, the inhibition at 10 µM at MAGL (10 μM, read-out: MAGL % inh. at 10 μM (mouse)) stood at 50%; at FAAH (10 μM, read-out: FAAH % inh. at 10 μM (mouse)), 100%.
Turning to `COc1ccccc1CN1CCC2(CCN(C(=O)n3cc(C(F)(F)F)cn3)C2)C1` (stereo not drawn) [Example 179, (7-(2-methoxybenzyl)-2,7-diazaspiro[4.4]nonan-2-yl)(4-(trifluoromethyl)-1H-pyrazol-1-yl)methanone], the inhibition at 1 µM at MAGL is at least 75%; on FAAH, 50 to 75%.
Take `O=C(N1CC2CN(Cc3cccc(Cl)c3)CC2C1)n1cc(Cl)cn1` (stereo not drawn) [Example 117, (4-chloro-1H-pyrazol-1-yl)(5-(3-chlorobenzyl)hexahydropyrrolo[3,4-c]pyrrol-2(1H)-yl)methanone]: on MAGL, the IC50 was at most 100 nM and the inhibition at 1 µM was at least 75%. Besides, on FAAH, the IC50 is at most 100 nM and the inhibition at 1 µM was at least 75%.
As to `CN(Cc1ccc(-c2nccs2)cc1C(F)(F)F)[C@@H]1C[C@@H]2CN(C(=O)n3cc(C(N)=O)cn3)C[C@@H]2C1` [Example 227, 1-(cis-5-(methyl(4-(thiazol-2-yl)-2-(trifluoromethyl)benzyl)amino)octahydrocyclopenta[c]pyrrole-2-carbonyl)-1H-pyrazole-4-carboxamide], the inhibition at 1 µM on MAGL and at FAAH was at least 75% in each case.
As for `O=C(N1CC2CN(Cc3ccc(Cl)cc3N3CCCC3)CC2C1)n1cc(Cl)cn1` (stereo not drawn) [Example 101, (4-chloro-1H-pyrazol-1-yl)(5-(4-chloro-2-(pyrrolidin-1-yl)benzyl)hexahydropyrrolo[3,4-c]pyrrol-2(1H)-yl)methanone], the IC50 is at most 100 nM at MAGL and 100 to 1000 nM on FAAH. Also, the inhibition at 1 µM at MAGL and at FAAH was at least 75% each time.
Turning to `NC(=O)c1cnn(C(=O)N2CCC3(CCN(Cc4ccc(C(F)(F)F)c(N5CCCC5)c4)C3)C2)c1` (stereo not drawn) [Example 209, 1-(7-(3-(pyrrolidin-1-yl)-4-(trifluoromethyl)benzyl)-2,7-diazaspiro[4.4]nonane-2-carbonyl)-1H-pyrazole-4-carboxamide], the inhibition at 1 µM at MAGL and on FAAH was at least 75% throughout.
Regarding `CC(=O)N1CCN(c2cc(C(C)C)ccc2CN2CC3CN(C(=O)n4cc(Cl)cn4)CC3C2)CC1` (stereo not drawn) [Example 109, 1-(4-(2-((5-(4-chloro-1H-pyrazole-1-carbonyl)hexahydropyrrolo[3,4-c]pyrrol-2(1H)-yl)methyl)-5-isopropylphenyl)piperazin-1-yl)ethan-1-one], on MAGL, the IC50 was at most 100 nM and the inhibition at 1 µM is at least 75%. Also, at FAAH, the IC50 was in the range of 1000 to 10000 nM and the inhibition at 1 µM lay within 0 to 25%.
For `NC(=O)c1cnn(C(=O)N2CC3CN(Cc4cc(Cl)ccc4Cl)CC3C2)c1` (stereo not drawn) [Example 20, 1-(5-(2,5-dichlorobenzyl)octahydropyrrolo[3,4-c]pyrrole-2-carbonyl)-1H-pyrazole-4-carboxamide], at MAGL, the 50% inhibitory concentration (IC50) is at most 100 nM and the inhibition at 1 µM was at least 75%. On FAAH, the concentration for half-maximal inhibition (IC50) was at most 100 nM and the inhibition at 1 µM was at least 75%.
In the case of `O=C(c1cnn(C(=O)N2CC3CN(Cc4cccc(C(F)(F)F)c4)CC3C2)c1)N1CCCC1` (stereo not drawn) [Example 15, pyrrolidin-1-yl(1-(5-(3-(trifluoromethyl)benzyl)octahydropyrrolo[3,4-c]pyrrole-2-carbonyl)-1H-pyrazol-4-yl)methanone], the inhibition at 1 µM at MAGL and at FAAH was at least 75% throughout.
In the case of `Cc1ccc(CN2CC3CN(C(=O)n4cc(C(F)(F)F)cn4)CC3C2)cc1` (stereo not drawn) [Example 147, (5-(4-methylbenzyl)hexahydropyrrolo[3,4-c]pyrrol-2(1H)-yl)(4-(trifluoromethyl)-1H-pyrazol-1-yl)methanone], at MAGL, the IC50 was at most 100 nM and the inhibition at 1 µM was at least 75%. For the same compound, on FAAH, the concentration for half-maximal inhibition (IC50) is at most 100 nM and the inhibition at 1 µM is at least 75%.
For the compound `O=C(c1cnn(C(=O)N2CCC3(CCN(Cc4cc(Cl)cc(C(F)(F)F)c4)C3)C2)c1)N1CCOCC1` (stereo not drawn) [Example 35, (1-(7-(3-chloro-5-(trifluoromethyl)benzyl)-2,7-diazaspiro[4.4]nonane-2-carbonyl)-1H-pyrazol-4-yl)(morpholino)methanone], the inhibition at 1 µM on MAGL is at least 75%; on FAAH, 25 to 50%.
Turning to `CNC(=O)c1cnn(C(=O)N2C[C@H]3C[C@@H](N(C)Cc4ccccc4C(F)(F)F)C[C@H]3C2)c1` [Example 91, N-methyl-1-(cis-5-(methyl(2-(trifluoromethyl)benzyl)amino)octahydrocyclopenta[c]pyrrole-2-carbonyl)-1H-pyrazole-4-carboxamide], the values for the inhibition at 1 µM on MAGL and on FAAH were 50 to 75% and at least 75%, respectively.
In the case of `O=C(N1CC2CN(Cc3ccc(N4CCOCC4)cc3Cl)CC2C1)n1cc(Cl)cn1` (stereo not drawn) [Example 126, (4-chloro-1H-pyrazol-1-yl)(5-(2-chloro-4-morpholinobenzyl)hexahydropyrrolo[3,4-c]pyrrol-2(1H)-yl)methanone], the half-inhibitory concentration (IC50) on MAGL and at FAAH was at most 100 nM in each case. For the same compound, the inhibition at 1 µM on MAGL and at FAAH was at least 75% in each case.
On to `O=C(c1cnn(C(=O)N2CCC3(CCN(Cc4cc(Cl)ccc4Cl)C3)C2)c1)N1CCCC1` (stereo not drawn) [Example 28, (1-(7-(2,5-dichlorobenzyl)-2,7-diazaspiro[4.4]nonane-2-carbonyl)-1H-pyrazol-4-yl)(pyrrolidin-1-yl)methanone], for which the inhibition at 1 µM at MAGL was 25 to 50%; on FAAH, at least 75%.
